The EC50 is the concentration giving half of the maximal effect.

Calls of active or inactive are those of the source.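 How the source made its calls: active means EC50 at or below 10 µM, fitted or read by hand from inhibition at single concentrations; inactive means EC50 above 10 µM.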 Where only a bound is given, the exact number is not on record here.

Sequence of 5-hydroxytryptamine receptor 1E (Homo sapiens) (P28566 whole entry, looked up): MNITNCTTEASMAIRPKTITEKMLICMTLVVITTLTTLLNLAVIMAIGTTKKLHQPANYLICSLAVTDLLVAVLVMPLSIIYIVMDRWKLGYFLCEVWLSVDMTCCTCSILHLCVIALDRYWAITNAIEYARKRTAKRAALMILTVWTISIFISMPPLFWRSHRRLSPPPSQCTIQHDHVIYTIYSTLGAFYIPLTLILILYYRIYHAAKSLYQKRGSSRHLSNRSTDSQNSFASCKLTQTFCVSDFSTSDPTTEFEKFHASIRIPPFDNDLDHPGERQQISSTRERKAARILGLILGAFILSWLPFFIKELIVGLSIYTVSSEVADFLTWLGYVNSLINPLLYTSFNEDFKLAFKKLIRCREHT

This experiment addresses 5-hydroxytryptamine receptor 1E (Homo sapiens) (UniProt P28566). The experiment in a line: activation of human 5HT1E serotonin receptor – cell-based, dose response (AID 726). To be noted: CHO 5-HT1E/Ga15 NFAT-bla, FRET reporter.
With `CN1CC=C(c2c[nH]c3ccccc23)CC1`, the EC50 was 0.00678 µM.

For the compound `O=C(COC(=O)CCC1CCCC1)Nc1ccc(Cl)cn1`, the EC50 was > 50 µM (inactive).

As to `CCc1ccc(NC(=O)Cn2c(SC)nc3ccccc32)cc1`, the EC50 was > 50 µM (inactive).

As to `CC(=O)Nc1ccc(S(=O)(=O)N(C)c2ccc(O)cc2)cc1`, the EC50 is > 50 µM (inactive).

As to `CCCCN(CC)Cc1ccc(CNC(=O)Nc2ccc(OC)cc2OC)o1`, the EC50 was 1.83 µM.

As to `c1ccc(N2CCN(Cc3cn4cccnc4n3)CC2)cc1`, the concentration for a half-maximal effect (EC50) was 1.07 µM.

On to `O=C(O)C1CCCCC1C(=O)NCCc1c[nH]c2ccccc12` (centres undefined), for which the half-maximal effective concentration (EC50) was 0.765 µM.

Turning to `CCCCN(C)CCCNC(=O)Cn1c(=O)sc2ccccc21`, the EC50 was 3.5 µM.

Consider `CCOC(=O)c1c(C)nc(-c2ccccc2)nc1NC(=O)CC`, for which the EC50 is > 50 µM (inactive).

In the case of `COC(=O)CC(=O)Cc1nc(N)nc(Nc2ccc(C)c(C)c2)n1`, the EC50 is > 50 µM (inactive).

Regarding `CCc1nn(C(C)C(=O)NCCN2CCN(c3cccc(C)c3C)CC2)c(=O)c2cc3occc3n12` (centres undefined), the EC50 is 2.32 µM.

In the case of `C[N+]1=C2CCCCCN2C(O)(c2ccccc2)C1` (centres undefined), the 50% effective concentration (EC50) is 1.33 µM.

In the case of `Cc1cccc(N2CCN(C(=O)Cc3c(C(=O)O)[nH]c4ccc(Cl)cc34)CC2)c1C`, the EC50 is > 50 µM (inactive).

On to `Cc1cc(C(C)(C)C)cc(C)c1CC1=NCCN1`, for which the EC50 is 0.087 µM.

With `CN1CCN2c3ccccc3Cc3ccccc3C2C1` (centres undefined), the concentration for a half-maximal effect (EC50) is 0.0378 µM.

In the case of `Cn1cc(/C(Cc2ccccc2)=N\O)c2ccccc21`, the EC50 was > 50 µM (inactive).

Regarding `CSc1nc2ccc(NC(=O)C3CCCO3)cc2s1` (centres undefined), the EC50 was > 50 µM (inactive).

For `Cc1cccc(NC(=O)C2CCCN(C(=O)Nc3ccccc3)C2)c1C` (centres undefined), the EC50 was > 50 µM (inactive).

For the compound `CCOC(=O)c1oc2ccccc2c1NC(=O)c1cc(OC)cc(OC)c1`, the EC50 is > 50 µM (inactive).

As to `CCN1CC=C(c2c[nH]c3ccccc23)CC1`, the concentration for a half-maximal effect (EC50) was 0.0239 µM.

Take `CCCCc1ccc2[nH]cc(CCN)c2c1`: the EC50 is 0.0113 µM.

Consider `CCOC(=O)C1CCN(C(c2cccnc2)c2c(NC(=O)c3ccco3)sc(C)c2C)CC1` (centres undefined), for which the EC50 is > 50 µM (inactive).

In the case of `NCCc1c[nH]c2ccc(F)cc12`, the EC50 is 0.484 µM.

As for `CN1CCN(/C(=N\O)c2nonc2N)CC1`, the EC50 is 1.17 µM.

Regarding `Cc1[nH]c2c(Cl)cccc2c1CCN`, the EC50 was 0.677 µM.

Turning to `CCN(CC)c1nc(N2CCOCC2)c(C#N)c2c1CN(C)CC2`, the EC50 was 1.75 µM.

`CC[C@@H](CO)NC(=O)[C@@H]1C=C2c3cccc4c3c(cn4C)C[C@H]2N(C)C1`: the EC50 was 0.0375 µM.

For `Cc1[nH]c2ccccc2c1C1=CCNCC1`, the half-maximal effective concentration (EC50) was 0.194 µM.

`c1ccc2sc(C3CCCNC3)nc2c1` (centres undefined): the EC50 was 0.186 µM.

Consider `CN(C)CCOC(=O)c1cn(Cc2ccccc2)c2ccccc12`, for which the EC50 was 0.493 µM.

Consider `CCOC(=O)C1=C(C)NC(=O)NC1c1ccc(OCC(=O)Nc2ccccc2)c(OC)c1` (centres undefined), for which the EC50 is > 50 µM (inactive).

With `COc1ccc(CN2CCN(c3ccccc3F)CC2)c(OC)c1`, the EC50 is > 50 µM (inactive).

Turning to `CCOC(=O)c1cc2ccc(OC(=O)c3ccco3)cc2oc1=O`, the half-maximal effective concentration (EC50) was 7.5 µM.

For the compound `COc1cc(CN2CCN(c3cccc(C)c3C)CC2)cc(OC)c1O`, the EC50 was > 50 µM (inactive).

Turning to `Cc1[nH]c2c(C(F)(F)F)cccc2c1CCN`, the EC50 is 0.817 µM.

Regarding `C1=C(c2c[nH]c3ccccc23)CCNC1`, the EC50 was 0.0157 µM.

In the case of `COc1ccc(N(CC(=O)NC2CCCC2)C(=O)Cn2nnc(-c3ccc(C)cc3)n2)cc1OC`, the EC50 was > 50 µM (inactive).

On to `Cc1c(CN2CCN(c3cccc(C(F)(F)F)c3)CC2)c(=O)n(-c2ccccc2)n1C`, for which the 50% effective concentration (EC50) was 1.84 µM.

Regarding `O=S(=O)(c1cccc(Cl)c1)N1CCCC1`, the EC50 is > 50 µM (inactive).

`Cc1cc(C(C)(C)C)c(O)c(C)c1CC1=NCCN1`: the EC50 was 0.099 µM.

`O=C(Nc1cccc(-c2cn3ccsc3n2)c1)c1ccccc1`: the EC50 is > 50 µM (inactive).

Consider `CN(C)CCCn1c(NC(=O)C2CCCCC2)nc2ccccc21`, for which the EC50 is 0.469 µM.

With `Cn1c(-c2ccccc2)cnc1SCc1nc2ccccc2c(=O)[nH]1`, the EC50 was > 50 µM (inactive).

On to `CNCCc1c[nH]c2ccccc12`, for which the EC50 is 0.105 µM.

Regarding `CC1CN(c2nnnn2-c2ccccc2)CC(C)O1` (centres undefined), the EC50 was > 50 µM (inactive).

As to `O=C(NCc1ccccc1)NC1(C(=O)N2CCCC2)CCCCC1`, the EC50 was > 50 µM (inactive).

In the case of `CC(CCc1ccccc1)NC(=O)CSc1nc(N)cc(N)n1` (centres undefined), the EC50 was > 50 µM (inactive).

Regarding `CCOC(=O)C1CCN(C(=O)Cc2c(C(=O)O)n(C)c3ccccc23)CC1`, the EC50 was > 50 µM (inactive).

As for `Cc1noc(C)c1COc1ccc(C(=O)OC(C)C(=O)Nc2ccc(N3CCOCC3)cc2)cc1` (centres undefined), the EC50 was > 50 µM (inactive).

Source of the values: PubChem BioAssay AID726 (The Scripps Research Institute Molecular Screening Center, 2007).
